Reference: US20260042764A1, “COMPOSITIONS AND METHODS FOR INHIBITION OF KRAS” (TheRas, Inc., priority 2022, published 2026)

How the values were obtained:
[1] = target: T1, Avi-KRAS G12R (1-169) GppNHp/RAF1 RBD-3xFLAG (52-151) (Homo sapiens, UniProt P01116, G12R); test: Raf1-KRAS G12R-GppNHP disruption HTRF assay (Biological Example 1); format: binding
T1 construct: Avi-KRAS G12R (1-169)
Method in brief: (§1)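 Percent activity versus DMSO (100%) was derived from HTRF signal after KRAS–RAF1 RBD protein mix was incubated 1 h at room temperature with shaking and detection reagents were added for a further 1 h.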

[2] = system: SW620 cells (KRAS G12V); test: Cell-based pERK HTRF assay in SW620 cell (Biological Example 4); conditions: pERK HTRF
Method in brief: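 Read-out: HTRF pERK signal (excitation 320 nm, emission 615 nm) from lysates of SW620 cells after 4 h compound exposure. Dose range was 9 points, half-log steps from 1 μM, in 0.25% DMSO; antibody incubation ran 4–24 h at room temperature.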

[3] = target: T2, Avi-KRAS G12V (1-169) GppNHp/RAF1 RBD-3xFLAG (52-151) (Homo sapiens, UniProt P01116, G12V); test: Raf1-KRAS G12V-GppNHP disruption HTRF assay (Biological Example 1); format: binding
T2 construct: Avi-KRAS G12V (1-169)
T2 sequence (P01116 1-169 isoform P01116-2 G12V): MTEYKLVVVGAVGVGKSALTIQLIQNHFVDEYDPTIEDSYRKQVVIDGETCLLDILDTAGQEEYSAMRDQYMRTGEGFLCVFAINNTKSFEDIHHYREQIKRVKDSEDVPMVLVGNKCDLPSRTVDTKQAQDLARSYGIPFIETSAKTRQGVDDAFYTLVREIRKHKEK
Method in brief: as §1

[4] = target: T3, Avi-KRAS WT (1-169) GppNHp/RAF1 RBD-3xFLAG (52-151) (Homo sapiens, UniProt P01116); test: Raf1-KRAS WT-GppNHP disruption HTRF assay (Biological Example 1); format: binding
T3 construct: Avi-KRAS WT (1-169)
T3 sequence (P01116 1-169 isoform P01116-2): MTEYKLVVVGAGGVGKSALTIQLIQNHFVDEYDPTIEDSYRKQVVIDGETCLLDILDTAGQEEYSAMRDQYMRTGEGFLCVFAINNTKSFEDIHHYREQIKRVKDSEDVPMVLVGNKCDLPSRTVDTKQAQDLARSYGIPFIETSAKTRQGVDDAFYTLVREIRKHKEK
Method in brief: as §1

[5] = target: T4, Avi-KRAS G12D (1-169) GppNHp/RAF1 RBD-3xFLAG (52-151) (Homo sapiens, UniProt P01116, G12D); test: Raf1-KRAS G12D-GppNHP disruption HTRF assay (Biological Example 1); format: binding
T4 construct: Avi-KRAS G12D (1-169)
T4 sequence (P01116 1-169 isoform P01116-2 G12D): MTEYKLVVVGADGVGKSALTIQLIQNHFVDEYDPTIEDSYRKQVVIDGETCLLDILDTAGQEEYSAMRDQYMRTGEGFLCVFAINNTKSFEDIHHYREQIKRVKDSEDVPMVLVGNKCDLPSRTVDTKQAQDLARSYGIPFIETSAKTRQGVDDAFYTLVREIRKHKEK
Method in brief: as §1

[6] = system: GP2d cells (KRAS G12D); test: Cell-based pERK HTRF assay in GP2d cell (Biological Example 2); conditions: GP2d (KRAS G12D) cells, pERK HTRF
Method in brief: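 60 min compound, 0.25% DMSO, 9-pt half-log curve from 1 μM or 100 nM; DMEM/10% FBS.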

[7] = Homo sapiens, SW-620, SW620 (KRAS G12V) cells
[8] = KRAS G12R, GppNHp-loaded, Table 11
[9] = KRAS G12V, GppNHp-loaded, Table 11
[10] = KRAS WT, GppNHp-loaded, Table 11
[11] = KRAS G12D, GppNHp-loaded, Table 11
[12] = KRAS G12R, GppNHp-loaded, class symbols
[13] = Homo sapiens, SW-620, SW620 (KRAS G12V) cells, class symbols
[14] = KRAS G12V, GppNHp-loaded, class symbols
[15] = KRAS WT, GppNHp-loaded, class symbols
[16] = KRAS G12D, GppNHp-loaded, class symbols

T1 sequence (P01116 1-169 isoform P01116-2 G12R): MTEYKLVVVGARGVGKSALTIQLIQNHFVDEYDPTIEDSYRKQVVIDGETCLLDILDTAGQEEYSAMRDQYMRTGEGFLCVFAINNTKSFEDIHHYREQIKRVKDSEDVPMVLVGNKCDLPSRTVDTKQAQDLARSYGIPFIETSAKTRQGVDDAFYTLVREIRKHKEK

Row | Structure (SMILES) | IC50 ([1]; KRAS G12R-GppNHp/RAF1 RBD HTRF) | IC50 [2, 7] | IC50 ([3]; KRAS G12V-GppNHp/RAF1 RBD HTRF) | IC50 ([4]; KRAS WT-GppNHp/RAF1 RBD HTRF) | IC50 ([5]; KRAS G12D-GppNHp/RAF1 RBD HTRF) | IC50 ([6]; GP2d) | IC50 [1, 12] | IC50 [2, 13] | IC50 [3, 14] | IC50 [4, 15] | IC50 [5, 16] | IC50 ([6]; GP2d, class symbols) | also measured
1 | CC(=O)N1C[C@@H](N(C)c2nc(OC[C@@]34CCCN3C[C@H](F)C4)nc3c(F)c(-c4ccc(F)c5sc(N)c(C#N)c45)c(C(F)(F)F)cc23)C[C@@H]1C [Compound 279] | 100 to 1000 nM | < 100 nM | 100 to 1000 nM | 100 to 1000 nM | < 100 nM | < 100 nM | – | – | – | – | – | – | –
2 | CC(=O)N1C[C@@H](F)[C@H](N(C)c2nc(OC[C@@]34CCCN3C[C@H](F)C4)nc3c(F)c(-c4ccc(F)c5sc(N)c(C#N)c45)c(C(F)(F)F)cc23)C1 [Compound 186] | – | 100 to 1000 nM | – | – | – | < 100 nM | – | – | – | – | – | – | IC50 [1, 8]: 100 to 1000 nM; IC50 [3, 9]: 100 to 1000 nM; IC50 [4, 10]: 100 to 1000 nM; IC50 [5, 11]: 100 to 1000 nM
3 | CCN(c1nc(OC[C@@]23CCCN2C[C@H](F)C3)nc2c(F)c(-c3ccc(F)c4sc(N)c(C#N)c34)c(C(F)(F)F)cc12)[C@H]1CC(=O)N(CCF)C1 (atropisomer, axis not shown) [Compound 635] | – | – | – | – | – | – | < 100 nM | < 100 nM | 100 to 1000 nM | < 100 nM | < 100 nM | < 100 nM | –
4 | CCC(=O)N1C[C@@H](N(CC)c2nc(OC[C@@]34CCCN3C[C@H](F)C4)nc3c(F)c(-c4ccc(F)c5sc(N)c(C#N)c45)c(C(F)(F)F)cc23)C[C@@H]1C [Compound 464] | < 100 nM | < 100 nM | < 100 nM | 100 to 1000 nM | < 100 nM | < 100 nM | – | – | – | – | – | – | –
5 | CCN(c1nc(OC[C@@]23CCCN2C[C@H](F)C3)nc2c(F)c(-c3ccc(F)c4sc(N)c(C#N)c34)c(C(F)(F)F)cc12)[C@@H]1C[C@@H](C)N(C(=O)OC)C1 (atropisomer, axis not shown) [Compound 526] | 100 to 1000 nM | < 100 nM | 100 to 1000 nM | 100 to 1000 nM | 100 to 1000 nM | < 100 nM | – | – | – | – | – | – | –
6 | CN1CCN(c2nc(OC[C@@]34CCCN3C[C@H](F)C4)nc3c(F)c(-c4ccc(F)c5sc(N)c(C#N)c45)c(C(F)(F)F)cc23)CCS1(=O)=O [Compound 311] | > 10000 nM | > 1000 nM | > 10000 nM | > 10000 nM | > 10000 nM | > 1000 nM | – | – | – | – | – | – | –
7 | N#Cc1c(N)sc2c(F)ccc(-c3c(C(F)(F)F)cc4c(N5CCO[C@@H]6C[C@@H]65)nc(OC[C@@]56CCCN5C[C@H](F)C6)nc4c3F)c12 [Compound 411] | 100 to 1000 nM | < 100 nM | 100 to 1000 nM | 100 to 1000 nM | 100 to 1000 nM | < 100 nM | – | – | – | – | – | – | –
8 | CCN(c1nc(OCC23CCCN2CC(F)C3)nc2c(F)c(-c3ccc(F)c4sc(N)c(C#N)c34)c(C(F)(F)F)cc12)C1CCN(C(=O)c2ccncc2)C1 (stereo not drawn) [Compound 709] | – | – | – | – | – | – | < 100 nM | < 100 nM | < 100 nM | < 100 nM | < 100 nM | < 100 nM | –
9 | C[C@H]1[C@H](N(C)c2nc(OC[C@@]34CCCN3C[C@H](F)C4)nc3c(F)c(-c4ccc(F)c5sc(N)c(C#N)c45)c(C(F)(F)F)cc23)CCN1C(=O)C1CC1 [Compound 301] | 1000 to 10000 nM | < 100 nM | 1000 to 10000 nM | 100 to 1000 nM | 100 to 1000 nM | < 100 nM | – | – | – | – | – | – | –
10 | CCN(c1nc(OC[C@@]23CCCN2C[C@H](F)C3)nc2c(F)c(-c3ccc(F)c4sc(N)c(C#N)c34)c(C(F)(F)F)cc12)[C@H]1CCN(C(=O)OCC2COC2)C1 (atropisomer, axis not shown) [Compound 639] | – | – | – | – | – | – | < 100 nM | < 100 nM | < 100 nM | < 100 nM | < 100 nM | < 100 nM | –
11 | CC(C)C(=O)N1C[C@@H](N(C)c2nc(OC[C@@]34CCCN3C[C@H](F)C4)nc3c(F)c(-c4ccc(F)c5sc(N)c(C#N)c45)c(C(F)(F)F)cc23)C[C@H]1C [Compound 448] | 1000 to 10000 nM | 100 to 1000 nM | 1000 to 10000 nM | 100 to 1000 nM | 100 to 1000 nM | < 100 nM | – | – | – | – | – | – | –
12 | N#Cc1c(N)sc2c(F)ccc(-c3c(C(F)(F)F)cc4c(N5CCOCC5)nc(OC[C@@]56CCCN5C[C@H](F)C6)nc4c3F)c12 (single isomer, unassigned) [Compound 199] | – | – | – | – | – | – | – | – | – | – | – | – | IC50 [1, 8]: > 10000 nM; IC50 ([2]; SW620 (KRAS G12V) cells): > 1000 nM; IC50 [3, 9]: > 10000 nM; IC50 [4, 10]: > 10000 nM; IC50 [5, 11]: > 10000 nM; IC50 [6]: > 1000 nM
13 | CN(C)C(=O)[C@@H]1CN(c2nc(OC[C@@]34CCCN3C[C@H](F)C4)nc3c(F)c(-c4ccc(F)c5sc(N)c(C#N)c45)c(C(F)(F)F)cc23)CCO1 [Compound 472] | 1000 to 10000 nM | < 100 nM | 1000 to 10000 nM | 1000 to 10000 nM | 100 to 1000 nM | < 100 nM | – | – | – | – | – | – | –
14 | CCN(c1nc(OC[C@@]23CCCN2C[C@H](F)C3)nc2c(F)c(-c3ccc(F)c4sc(N)c(C#N)c34)c(C(F)(F)F)cc12)[C@H]1CCN(C(=O)C=C(C)C)C1 (atropisomer, axis not shown) [Compound 675] | – | – | – | – | – | – | < 100 nM | < 100 nM | < 100 nM | < 100 nM | < 100 nM | < 100 nM | –
15 | CCN(c1nc(OC[C@@]23CCCN2C[C@H](F)C3)nc2c(F)c(-c3ccc(F)c4sc(N)c(C#N)c34)c(C(F)(F)F)cc12)[C@@H]1C[C@@H](C)N(C(=O)COC)C1 (atropisomer, axis not shown) [Compound 597] | – | – | – | – | – | – | 100 to 1000 nM | < 100 nM | 100 to 1000 nM | < 100 nM | 100 to 1000 nM | < 100 nM | –
16 | N#Cc1c(N)sc2c(F)ccc(-c3c(C(F)(F)F)cc4c(N5CC6CCC(C5)N6C(=O)C5CC5)nc(OC[C@@]56CCCN5C[C@H](F)C6)nc4c3F)c12 [Compound 439] | 1000 to 10000 nM | < 100 nM | 1000 to 10000 nM | 1000 to 10000 nM | 100 to 1000 nM | < 100 nM | – | – | – | – | – | – | –
17 | CCN(c1nc(OC[C@@]23CCCN2C[C@H](F)C3)nc2c(F)c(-c3ccc(F)c4sc(N)c(C#N)c34)c(C(F)(F)F)cc12)[C@H]1CCN(C(=O)[C@H]2CCCO2)C1 (atropisomer, axis not shown) [Compound 735] | – | – | – | – | – | – | < 100 nM | < 100 nM | < 100 nM | < 100 nM | < 100 nM | < 100 nM | –
18 | CCN(c1nc(OC[C@@]23CCCN2C[C@H](F)C3)nc2c(F)c(-c3ccc(F)c4sc(N)c(C#N)c34)c(C(F)(F)F)cc12)[C@H]1CCN(C(=O)c2ccn(C)n2)C1 (atropisomer, axis not shown) [Compound 724] | – | – | – | – | – | – | < 100 nM | < 100 nM | < 100 nM | < 100 nM | < 100 nM | < 100 nM | –
19 | N#Cc1c(N)sc2c(F)ccc(-c3c(C(F)(F)F)cc4c(N5C[C@H]6C[C@@H]5[C@@H](O)C6)nc(OC[C@@]56CCCN5C[C@H](F)C6)nc4c3F)c12 [Compound 360] | 1000 to 10000 nM | 100 to 1000 nM | 1000 to 10000 nM | 1000 to 10000 nM | 1000 to 10000 nM | < 100 nM | – | – | – | – | – | – | –
20 | C/C=C/C(=O)N1CC[C@@H](N(C)c2nc(OC[C@@]34CCCN3C[C@H](F)C4)nc3c(F)c(-c4ccc(F)c5sc(N)c(C#N)c45)c(C(F)(F)F)cc23)[C@H]1C [Compound 670] | – | – | – | – | – | – | 100 to 1000 nM | < 100 nM | 100 to 1000 nM | 100 to 1000 nM | 100 to 1000 nM | < 100 nM | –
21 | CC(=O)N1CC[C@@H]2[C@H]1CN2c1nc(OC[C@@]23CCCN2C[C@H](F)C3)nc2c(F)c(-c3ccc(F)c4sc(N)c(C#N)c34)c(C(F)(F)F)cc12 [Compound 514] | 100 to 1000 nM | < 100 nM | 100 to 1000 nM | 100 to 1000 nM | 100 to 1000 nM | < 100 nM | – | – | – | – | – | – | –
22 | N#Cc1nnn2c1CN(c1nc(OC[C@@]34CCCN3C[C@H](F)C4)nc3c(F)c(-c4ccc(F)c5sc(N)c(C#N)c45)c(C(F)(F)F)cc13)CC2 [Compound 486] | 100 to 1000 nM | < 100 nM | 100 to 1000 nM | 100 to 1000 nM | 100 to 1000 nM | < 100 nM | – | – | – | – | – | – | –
